Experimental data taken from article PMC8740778, “Translational Pharmacokinetic–Pharmacodynamic Modeling of NaV1.7 Inhibitor MK-2075 to Inform Human Efficacious Dose” (Frontiers in Pharmacology, 2021).
Marks after values point to notes of the source that are not given here.

Columns and labels:
BALB/c male mice = assay: Mouse tail flick latency; format: in vivo; conditions: at clinical efficacious concentrations
[1] = trough plasma concentration just prior to patient-controlled subsequent dose; postoperative pain; ref Dahlstrom et al., 1982 (morphine), Lehmann et al., 1990 (tramadol); cited from earlier work
[2] = parameters: method as in Rothenberg et al., 2019; conditions: healthy volunteers; no exposure-related pattern; ref Rothenberg et al., 2019; cited from earlier work

Structure (SMILES): COc1cccc(C2(O)CCCCC2CN(C)C)c1 (centres unmarked) [Tramadol]
- Percent of the maximum possible effect in mouse tail flick latency (BALB/c male mice): approximately 50%
- Clinical MEC, mean (range) [1]: 1.092 (0.077–3.744) ^c µM

Structure (SMILES): O=C(NS(=O)(=O)N1CCC1)c1cc(C2CC2)c(OCC23CC4CC(CC(C4)C2)C3)cc1F [GDC-0276]
- Hyposmia (reduced sense of smell) in clinical study [2]: a couple of incidents of hyposmia were reported

Structure (SMILES): CN1CC[C@]23c4c5ccc(O)c4O[C@H]2[C@@H](O)C=C[C@H]3[C@H]1C5 [Morphine]
- Percent of the maximum possible effect in mouse tail flick latency (BALB/c male mice): approximately 50%
- Clinical MEC, mean (range) [1]: 0.074 (0.032–0.116) ^b µM
